Patent US20180044343A1, “BICYCLIC IMIDAZOLO DERIVATIVE” (Sumitomo Dainippon Pharma Co., Ltd., priority 2015, published 2018)
pIC50: −log10 of the molar value.

Molecular target: PDE1B (Homo sapiens, UniProt Q01064)
Test: In vitro HTRF PDE1 inhibition assay (PDE1B)
Type: biochemical
Conditions: in vitro PDE1B HTRF Assay; read-out: IC50

Chain of PDE1B (Q01064 whole entry): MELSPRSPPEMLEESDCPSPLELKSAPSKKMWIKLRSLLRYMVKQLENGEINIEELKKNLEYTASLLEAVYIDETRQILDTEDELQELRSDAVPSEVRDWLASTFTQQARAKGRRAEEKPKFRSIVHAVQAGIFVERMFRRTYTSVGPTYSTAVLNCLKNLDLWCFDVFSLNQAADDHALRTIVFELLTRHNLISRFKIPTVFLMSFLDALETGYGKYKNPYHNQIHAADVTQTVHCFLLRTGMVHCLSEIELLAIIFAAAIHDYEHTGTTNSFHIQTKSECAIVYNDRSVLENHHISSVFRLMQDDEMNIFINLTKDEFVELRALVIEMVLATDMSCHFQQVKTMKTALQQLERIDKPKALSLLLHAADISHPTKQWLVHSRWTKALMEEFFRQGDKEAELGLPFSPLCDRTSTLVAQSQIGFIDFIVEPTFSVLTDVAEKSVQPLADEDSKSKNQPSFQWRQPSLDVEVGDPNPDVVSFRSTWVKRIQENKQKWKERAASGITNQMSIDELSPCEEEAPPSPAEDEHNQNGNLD

Row | pIC50 | SMILES
1 | > 6.00 | COc1nn2c(C3CCOCC3)nc(C)c2c(=O)n1CC1CCC(F)(F)CC1 [Example 122]
2 | > 6.00 | CCn1c(OCC2CCC(F)(F)CC2)nn2c(C3CCOCC3)ncc2c1=S [Example 123, 2-[(4,4-Difluorocyclohexyl)methoxy]-3-ethyl-7-(tetrahydro-2H-pyran-4-yl)imidazo[5,1-f][1,2,4]triazin-4(3H)-thione]
3 | > 6.00 | O=c1[nH]c(N2CCC[C@@H]2c2ccccc2)nn2c(C3CCOCC3)ncc12 [Example 124, 2-[(2R)-2-phenylpyrrolidin-1-yl]-7-(tetrahydro-2H-pyran-4-yl)imidazo[5,1-f][1,2,4]triazin-4(3H)-one]
4 | > 6.00 | CC(C)c1ncc2c(=O)[nH]c(N3CCC[C@@H]3c3ccc(Cl)cc3)nn12 [Example 125, 2-[(2R)-2-(4-chlorophenyl)pyrrolidin-1-yl]-7-(propan-2-yl)imidazo[5,1-f][1,2,4]triazin-4(3H)-one]
5 | > 6.00 | O=c1[nH]c(N2CCC[C@H]2c2ccccc2)nn2c(C3CCOCC3)ncc12 [Example 126]
6 | > 6.00 | O=c1[nH]c(N2CCCC2c2ccccc2Cl)nn2c(C3CCOCC3)ncc12 (stereo not drawn) [Example 127]
7 | > 6.00 | O=c1[nH]c(N2CCCC2c2cccc(Cl)c2)nn2c(C3CCOCC3)ncc12 (stereo not drawn) [Example 128]
8 | > 6.00 | O=c1[nH]c(N2CCCC2c2ccc(Cl)cc2)nn2c(C3CCOCC3)ncc12 (stereo not drawn) [Example 129]
9 | > 6.00 | CC(C)c1ncc2c(=O)[nH]c(N3CCC[C@@H]3c3ccccc3)nn12 [Example 130]
10 | 5.00 to 6.00 | CC(C)c1ncc2c(=O)[nH]c(N3CCC[C@H]3c3ccccc3)nn12 [Example 131]
11 | > 6.00 | CC(C)c1ncc2c(=O)[nH]c(N3CCCC3c3ccccc3Cl)nn12 (stereo not drawn) [Example 132]
12 | > 6.00 | CC(C)c1ncc2c(=O)[nH]c(N3CCCC3c3cccc(Cl)c3)nn12 (stereo not drawn) [Example 133]
13 | > 6.00 | CC(C)c1ncc2c(=O)[nH]c(N3CCCC3c3ccc(Cl)cc3)nn12 (stereo not drawn) [Example 134]
14 | > 6.00 | COc1ccc(CNc2nn3c(C(C)C)ncc3c(=O)n2C)nc1 [Example 135, 2-{[(5-Methoxypyridin-2-yl)methyl]amino}-3-methyl-7-(propan-2-yl)imidazo[5,1-f][1,2,4]triazin-4(3H)-one]
15 | > 6.00 | Cc1ccc(CNc2nn3c(C4CCOCC4)ncc3c(=O)n2C)c(F)c1 [Example 136, 2-[(2-Fluoro-4-methylbenzyl)amino]-3-methyl-7-(tetrahydro-2H-pyran-4-yl)imidazo[5,1-f][1,2,4]triazin-4(3H)-one]
16 | > 6.00 | Cc1cccc(CNc2nn3c(C(C)C)ncc3c(=O)n2C)n1 [Example 137, 3-Methyl-2-{[(6-methylpyridin-2-yl)methyl]amino}-7-(propan-2-yl)imidazo[5,1-f][1,2,4]triazin-4(3H)-one]
17 | > 6.00 | CC(C)c1ncc2c(=O)n(C)c(NC3CCCc4ccccc43)nn12 (stereo not drawn) [Example 138, 3-Methyl-7-(propan-2-yl)-2-(1,2,3,4-tetrahydronaphthalen-1-ylamino)imidazo[5,1-f][1,2,4]triazin-4(3H)-one]
18 | > 6.00 | CC(C)c1ncc2c(=O)n(C)c(NCc3ccccc3)nn12 [Example 139]
19 | > 6.00 | COc1ccc(CNc2nn3c(C(C)C)ncc3c(=O)n2C)cc1 [Example 140]
20 | > 6.00 | CC(C)c1ncc2c(=O)n(C)c(NCc3ccc(Cl)cc3)nn12 [Example 141]
21 | > 6.00 | CC(C)c1ncc2c(=O)n(C)c(NCc3ccc(C#N)cc3)nn12 [Example 142]
22 | > 6.00 | CC(C)c1ncc2c(=O)n(C)c(NC3CCc4ccccc43)nn12 (stereo not drawn) [Example 143]
23 | > 6.00 | CC(C)c1ncc2c(=O)n(C)c(N[C@@H]3CCCc4ccccc43)nn12 [Example 144]
24 | > 6.00 | CC(C)c1ncc2c(=O)n(C)c(N[C@H]3CCCc4ccccc43)nn12 [Example 145]
25 | > 6.00 | CC(C)c1ncc2c(=O)n(C)c(NCc3ccc(Cl)cc3F)nn12 [Example 146]
26 | > 6.00 | CC(C)c1ncc2c(=O)n(C)c(NC3CCCc4cc(Cl)ccc43)nn12 (stereo not drawn) [Example 147]
27 | > 6.00 | CC(C)c1ncc2c(=O)n(C)c(NC3CCCc4cc(C#N)ccc43)nn12 (stereo not drawn) [Example 148]

Row | pIC50 | SMILES
28 | > 6.00 | CC(C)c1ncc2c(=O)n(C)c(NCc3ccccn3)nn12 [Example 150]
29 | > 6.00 | CC(C)c1ncc2c(=O)n(C)c(NCCc3ccccn3)nn12 [Example 151]
30 | > 6.00 | CC(C)c1ncc2c(=O)n(C)c(NCc3cccnc3)nn12 [Example 152]
31 | > 6.00 | Cc1ccc(CNc2nn3c(C(C)C)ncc3c(=O)n2C)nc1 [Example 153]
32 | 5.00 to 6.00 | CC(C)c1ncc2c(=O)n(C)c(NCc3ccc(F)cn3)nn12 [Example 154]
33 | > 6.00 | Cc1ccnc(CNc2nn3c(C(C)C)ncc3c(=O)n2C)c1 [Example 156]
34 | > 6.00 | Cc1cccnc1CNc1nn2c(C(C)C)ncc2c(=O)n1C [Example 157]
35 | > 6.00 | CC(C)c1ncc2c(=O)n(C)c(NCc3ccc(C#N)cn3)nn12 [Example 158]
36 | > 6.00 | CCc1ccc(CNc2nn3c(C(C)C)ncc3c(=O)n2C)nc1 [Example 159]
37 | > 6.00 | CC(C)c1ncc2c(=O)n(C)c(NCc3ncccc3F)nn12 [Example 160]
38 | > 6.00 | CC(C)c1ncc2c(=O)n(C)c(NC3(c4ccccn4)CC3)nn12 [Example 161]
39 | 5.00 to 6.00 | CC(C)c1ncc2c(=O)n(C)c(NC(C)(C)c3ccccn3)nn12 [Example 162]
40 | 5.00 to 6.00 | CC(C)c1ncc2c(=O)n(C)c(N(C)Cc3ccccn3)nn12 [Example 163]
41 | > 6.00 | CC(C)c1ncc2c(=O)n(C)c(N3CCC[C@@H]3c3ccc(Cl)cc3)nn12 [Example 164]
42 | > 6.00 | Cc1ccc([C@H]2CCCN2c2nn3c(C(C)C)ncc3c(=O)n2C)cc1 [Example 165]
43 | > 6.00 | CC(C)c1ccc([C@H]2CCCN2c2nn3c(C(C)C)ncc3c(=O)n2C)cc1 [Example 166]
44 | 5.00 to 6.00 | CC(C)c1ncc2c(=O)n(C)c(N3CCC[C@@H]3c3ccc(C#N)cc3)nn12 [Example 167]
45 | > 6.00 | CCc1ccc([C@H]2CCCN2c2nn3c(C(C)C)ncc3c(=O)n2C)cc1 [Example 168]
46 | > 6.00 | CCn1c(NCc2ccccn2)nn2c(C(C)C)ncc2c1=O [Example 169]
47 | > 6.00 | CCn1c(NCc2ccc(C)cn2)nn2c(C(C)C)ncc2c1=O [Example 170]
48 | > 6.00 | CCn1c(NCc2ccc(F)cn2)nn2c(C(C)C)ncc2c1=O [Example 171]
49 | > 6.00 | CCn1c(NCc2ccc(OC)cn2)nn2c(C(C)C)ncc2c1=O [Example 172]
50 | 5.00 to 6.00 | CCn1c(NCc2ncccc2C)nn2c(C(C)C)ncc2c1=O [Example 173]
51 | > 6.00 | CCn1c(NCc2ncccc2F)nn2c(C(C)C)ncc2c1=O [Example 174]
52 | > 6.00 | CCn1c(NCc2ccc(C#N)cn2)nn2c(C(C)C)ncc2c1=O [Example 175]
53 | > 6.00 | CCn1c(NCCc2ccccn2)nn2c(C(C)C)ncc2c1=O [Example 177]
54 | > 6.00 | CCn1c(N2CCC[C@@H]2c2ccc(Cl)cc2)nn2c(C(C)C)ncc2c1=O [Example 178]

Row | pIC50 | SMILES
55 | > 6.00 | CCCn1c(N2CCC[C@@H]2c2ccc(Cl)cc2)nn2c(C(C)C)ncc2c1=O [Example 179]
56 | > 6.00 | Cn1c(NCc2ccc(Cl)cc2)nn2c(C3CCOCC3)ncc2c1=O [Example 180]
57 | > 6.00 | Cn1c(NCc2ccccn2)nn2c(C3CCOCC3)ncc2c1=O [Example 181]
58 | > 6.00 | Cn1c(NCCc2ccccn2)nn2c(C3CCOCC3)ncc2c1=O [Example 182]
59 | > 6.00 | Cn1c(N2CCCC2)nn2c(C3CCOCC3)ncc2c1=O [Example 183]
60 | > 6.00 | Cn1c(N2CCCCC2)nn2c(C3CCOCC3)ncc2c1=O [Example 184]
61 | > 6.00 | Cn1c(N2CCOCC2)nn2c(C3CCOCC3)ncc2c1=O [Example 185]
62 | > 6.00 | COCCN1CCN(c2nn3c(C4CCOCC4)ncc3c(=O)n2C)CC1 [Example 186]
63 | > 6.00 | CO[C@H]1CCN(c2nn3c(C4CCOCC4)ncc3c(=O)n2C)C1 [Example 187]
64 | > 6.00 | CO[C@@H]1CCN(c2nn3c(C4CCOCC4)ncc3c(=O)n2C)C1 [Example 188]
65 | > 6.00 | Cn1c(N2CC[C@@H](Oc3ccc(F)cn3)C2)nn2c(C3CCOCC3)ncc2c1=O [Example 189]
66 | > 6.00 | Cn1c(N2CC[C@H](Oc3ccc(F)cn3)C2)nn2c(C3CCOCC3)ncc2c1=O [Example 190]
67 | > 6.00 | COC1CCN(c2nn3c(C4CCOCC4)ncc3c(=O)n2C)CC1 [Example 191]
68 | > 6.00 | COCC1CCN(c2nn3c(C4CCOCC4)ncc3c(=O)n2C)CC1 [Example 192]
69 | > 6.00 | COCCC1CCN(c2nn3c(C4CCOCC4)ncc3c(=O)n2C)CC1 [Example 193]
70 | 5.00 to 6.00 | CN(C)C(=O)C1CCN(c2nn3c(C4CCOCC4)ncc3c(=O)n2C)CC1 [Example 194]
71 | > 6.00 | CC(=O)N1CCN(c2nn3c(C4CCOCC4)ncc3c(=O)n2C)CC1 [Example 195]
72 | > 6.00 | COCCCN1CCN(c2nn3c(C4CCOCC4)ncc3c(=O)n2C)CC1 [Example 196]
73 | > 6.00 | CN(C)C(=O)CN1CCCN(c2nn3c(C4CCOCC4)ncc3c(=O)n2C)CC1 [Example 197]
74 | > 6.00 | CCn1c(N2CCCC2)nn2c(C3CCOCC3)ncc2c1=O [Example 198]
75 | > 6.00 | CCCn1c(N2CCCC2)nn2c(C3CCOCC3)ncc2c1=O [Example 199]
76 | > 6.00 | O=c1c2cnc(C3CCOCC3)n2nc(N2CCCC2)n1Cc1ccccc1 [Example 202]
77 | > 6.00 | O=c1c2cnc(C3CCOCC3)n2nc(N2CCCC2)n1Cc1ccc(Cl)cc1 [Example 203]
78 | > 6.00 | Cc1ccc(CNc2nn3c(C4CCC4)ncc3c(=O)n2C)nc1 [Example 204]
79 | > 6.00 | Cn1c(NCc2ccc(Cl)cn2)nn2c(C3CCC3)ncc2c1=O [Example 205]

Row | SMILES | pIC50
80 | Cc1ccc(CNc2nn3c(C(C)C)ncc3c(=O)n2C)cn1 [Example 155] | > 6.00
81 | CCn1c(NCc2ccc(C)nc2)nn2c(C(C)C)ncc2c1=O [Example 176] | > 6.00
